How the values were obtained:
HCMV AD169 = assay: Western blot analysis of HCMV protein expression in infected HFFs; assay type: cell-based, human cytomegalovirus; conditions: 30 nM, HCMV AD169 MOI 0.1, 5 d and 7 d p.i.
Protocol: (§1) Western blot (Wb) analyses were performed as previously described using total lysates prepared from infected and mock-infected HFFs. For this purpose, HFFs were seeded at 3 × 10^5 cells/6-well and used for infection with HCMV AD169, or other viruses as indicated, then treated with compounds or solvent control. At the given time points of infection, the total lysates were prepared and used for separation on standard SDS-PAGE/Wb procedures. For Wb staining, antibodies specific for CDK8 (A302-501A, Bethyl Laboratories, Montgomery, TX, USA); viral proteins such as mAb-IE1, mAb-UL44, mAb-pp28, and mAb-MCP (kindly provided by S. Jonjic and T. Lenac Rovis, Rijeka, Croatia); as well as mAb-β-actin as a house-keeping protein and loading control (A5441, Sigma Aldrich, St. Louis, MO, USA) were used, followed by incubation and staining with the appropriate HRP-conjugated secondary antibodies.

HCMV AD169-UL50-HA = assay: Virus entry analysis, pre-post-incubation versus post-incubation (Western blot); assay type: cell-based, human cytomegalovirus; conditions: CCT 5 nM and 15 nM, HFFs, MOI 0.01, 7 d p.i.
Protocol: as §1

Cn1ncc2cc(-c3cnc(N)c(Cl)c3N3CCC4(CCNC4=O)CC3)ccc21 [CCT-151921] was tested, and the “viral late (L) protein level (pp28), Western blot” value (HCMV AD169) was “complete inhibition” and the “effect at the stage of virus entry” value (HCMV AD169-UL50-HA) was “does not act at the stage of virus entry”.
